Source: patent US20200237793A1, “IMMUNOMODULATORY OLIGOSACCHARIDES” (The Regents of the University of California, priority 2017, published 2020)

Experiments:
RAW 264.7 cells = experiment: Pro-inflammatory cytokine mRNA expression (RT-PCR) in LPS-stimulated macrophages; type: cell-based, murine
Method: RAW246.7 cells were exposed to LPS either alone or in combination with either pooled human milk oligosaccharides (HMOs), or 3′-sialyllactose (3′SL) or 2′-fucosyllactose (2′FL). After 6 hours, IL-6 (A) and IL-1β (B) mRNA levels were measured by RT-PCR and are plotted as mean±standard deviation (n=8) relative the respective mRNA levels in cells that were exposed to LPS alone (**p<0.01; ***p<0.001). HMOs are a group of more than 150 different structurally distinct oligosaccharides and their composition follows a basic structural blueprint (C), containing five monosaccharide building blocks: glucose (dark gray circle), galactose (light gray circle), N-acetylglucosamine (dark gray square), fucose (gray triangle) and sialic acid (gray diamond). 3′SL contains lactose with sialic acid at the terminal end; 2′FL contains lactose with fucose at the terminal end.
HMOs were first isolated and purified from pooled human donor milk (pHMO) by using polymixin B affinity chromatography to remove any lipopolysaccharide (LPS) contamination. RAW 264.7 cells, a murine macrophage cell line, were then incubated with LPS (10 ng/mL) and pHMO (500 μg/mL) for 6 hours. RT-PCR was used to measure cytokine mRNA expression.
A multi-dimensional chromatography approach was used that separates pHMO first by charge and then by size. […]

[1] = tested on: bone marrow derived macrophages; experiment: Pro-inflammatory cytokine expression in primary mouse cells; type: cell-based
Text: (§1) Accordingly, the results with 3′SL translate to primary cells as well as to human macrophages.

[2] = tested on: THP-1 monocytic cell line; experiment: Pro-inflammatory cytokine expression in human monocytic cell line; type: cell-based; conditions: human THP-1
Text: as §1

[3] = tested on: collagen antibody-induced arthritis (CAIA) model; experiment: Collagen antibody-induced arthritis (CAIA) model; type: in vivo, BALB/c mice
Method: Macrophages and the pro-inflammatory cytokines IL-6 and IL-1β are known to perform a major role in the development and progression of joint destruction in animal models and patients with RA. […] Next, it was asked whether or not the in vitro results translate to an in vivo model. 3′SL efficacy in a collagen antibody-induced arthritis (CAIA) model was tested in mice. In the CAIA model, arthritis is induced by systemic administration of a cocktail of monoclonal antibodies that target various regions of collagen type II, which is one of the major constituents of articular cartilage matrix proteins, followed by the administration of endotoxin (LPS) on day 3. The high uptake rate in the CAIA model and the capacity to synchronize the development of arthritis from the time of antibody injection, makes this a relatively straightforward model that is used to address questions of pathogenic mechanisms and to screen candidate therapeutic agents.
8-week old female BALB/c mice were injected with 1.5 mg of Arthrogen-CIA monoclonal antibody cocktail (Chondrex, Inc.). Three days later, the mice were injected with 25 μg of LPS. Beginning with the time of LPS administration and followed for the next 11 consecutive days, mice were orally gavaged thrice daily with either 3′SL (20 mg in saline) or saline alone as control. With the tester blinded to the study groups, arthritis in each limb was determined once per day. […] By adding together, the scores of all four limbs, the maximum score per mouse is 28. In addition, a caliper was placed across the ankle joint at the widest point to measure ankle thickness in both hind limbs daily. 14 days after antibody cocktail administration, mice were euthanized and hind paws collected and processed for histology. H&E—as well as Toluidine blue-stained sections were scored from 0 to 4 for inflammation, bone erosion and cartilage depletion based on a previously validated scoring system.

[4] = hind paws, day 14, score 0 to 4, oral 20 mg thrice daily
[5] = oral gavage 20 mg in saline thrice daily, from LPS administration, vs saline

In the case of `CC(=O)N[C@H]1[C@H]([C@H](O)[C@H](O)CO)O[C@@](O[C@H]2[C@@H](O)[C@@H](CO)O[C@@H](O[C@H]3[C@H](O)[C@@H](O)C(O)O[C@@H]3CO)[C@@H]2O)(C(=O)O)C[C@@H]1O` (stereo partly shown) [3′SL, 3′-sialyllactose], the “IL-6 and IL-1β mRNA expression” value (RAW 264.7 cells; LPS-activated macrophages, individual oligosaccharides) is reported as “most effective in reducing”, the “IC50 (reducing IL-6 and IL-1β mRNA expression)” value (RAW 264.7 cells; dose-range finding studies) is reported as “around 15 μg/mL” and the pro-inflammatory cytokine expression [1] is reported as “reduced”. For the same compound, the pro-inflammatory cytokine expression [2] was “reduced”, the adverse effects ([3]; 14-day study period, oral 20 mg thrice daily) was “No adverse effects were observed” and the “histology score for cartilage damage” value [3, 4] was “significantly lower”. The “histology score for erosion” value [3, 4] was “significantly lower”, the “histology score for inflammation” value [3, 4] was “significantly lower” and the “Baseline-corrected ankle thickness (paw swelling)” value [3, 5] was “significantly reduced”. The “clinical index score 28” value [3, 5] was “significantly reduced”.
